The results in this text go back to US9695200B2, “Heterocyclic ITK inhibitors for treating inflammation and cancer” (Confluence Life Sciences, Inc., priority 2015, dated 2017).

Where two headings read alike, the source gives them in different places.

The target in one test is ITK (Homo sapiens (Human), UniProt Q08881). The experiment in a line: ITK inhibitor binding potency (LanthaScreen competitive binding assay). Conditions: TR-FRET tracer-236 displacement, 10 nM ITK; pre-incubation condition not given; read-out: ITK Inhibition IC50. The text has this: The ability of candidate compounds to interact with ITK is quantitated by a competitive binding assay using the LanthaScreen technology developed by Life Technologies. This assay is based on the binding of a proprietary, Alexa Fluor® 647-labeled, ATP-competitive kinase inhibitor (kinase tracer-236) to the ITK expression construct in the presence of a Europium-conjugated antibody, resulting in a FRET (fluorescence resonance energy transfer) signal. Displacement of the kinase tracer by compound results in a lower emission ratio upon excitation of the Europium chelate. Candidate compounds are designed as potential irreversible inhibitors of ITK, capable of ligating to an active site cysteine residue resulting in time dependent covalent binding. The time dependent nature of irreversible inhibition is investigated by performing the binding assay with and without a pre-incubation of compound and ITK. […] The inhibitory potency of candidate compounds is measured in 20 mM HEPES pH 7.5, 10 mM MgCl2, 0.01% BSA, 0.0005% Tween-20, and 2% DMSO in the presence of 10 nM ITK, 2 nM Eu-anti-GST antibody, and 50 nM kinase tracer-236 using a 384-well plate format. Background signal is defined in the absence of ITK and uninhibited signal is defined in the presence of vehicle (2% DMSO) alone. Compounds were evaluated in an 11 point dose-response ranging from 20 uM to 0.34 nM. The binding assays are performed under two preincubation conditions to evaluate time dependence of inhibition. For the pre-incubation assay, ITK and Eu-anti-GST antibody are pre-incubated with compound or vehicle for two hours prior to the addition of kinase tracer. The non-preincubated assay is run under conditions where ITK and Eu-anti-GST antibody are added to a mixture of compound and kinase tracer. IC50 values of compounds are determined using a 4 parameter logistical fit of emission ratio as a function of the concentration of compound.

Test [1] concerns phospho-PLCγ1 in Jurkat cells. The experiment in a line: ITK target modulation PLC-γ assay (phospho-PLCγ1, αCD3-stimulated Jurkat cells). The test is classed as cell-based, human. The following applies: 1 hour compound incubation, αCD3 Dynabeads stimulation 8 minutes, MSD phospho-PLCγ1, read-out: PLC-γ Inhibition IC50.

Chain of ITK (Q08881 whole entry): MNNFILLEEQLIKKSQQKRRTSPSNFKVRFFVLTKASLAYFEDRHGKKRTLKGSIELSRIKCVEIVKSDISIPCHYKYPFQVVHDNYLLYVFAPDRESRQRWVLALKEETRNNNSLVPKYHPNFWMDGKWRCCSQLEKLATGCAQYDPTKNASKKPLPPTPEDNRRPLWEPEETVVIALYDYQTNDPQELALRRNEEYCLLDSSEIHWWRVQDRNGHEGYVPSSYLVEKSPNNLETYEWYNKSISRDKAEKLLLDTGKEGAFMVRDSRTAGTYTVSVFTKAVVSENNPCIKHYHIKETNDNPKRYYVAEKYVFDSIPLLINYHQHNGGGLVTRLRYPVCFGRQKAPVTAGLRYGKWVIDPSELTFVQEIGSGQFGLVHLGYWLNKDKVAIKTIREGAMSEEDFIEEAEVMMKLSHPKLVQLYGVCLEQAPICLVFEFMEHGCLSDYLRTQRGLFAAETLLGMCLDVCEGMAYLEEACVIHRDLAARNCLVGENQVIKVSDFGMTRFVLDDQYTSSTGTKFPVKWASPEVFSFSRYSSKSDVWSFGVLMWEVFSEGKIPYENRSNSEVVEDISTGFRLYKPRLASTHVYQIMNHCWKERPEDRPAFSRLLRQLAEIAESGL

By IC50 is commonly meant the point on the concentration scale where inhibition reaches its midpoint. With `C=C(C)C(=O)Nc1cccc(-c2cnc3[nH]cc(-c4ccnc(OC)c4)c3c2)c1` [Example 81, N-(3-(3-(2-methoxypyridin-4-yl)-1H-pyrrolo[2,3-b]pyridin-5-yl)phenyl)meth-acrylamide], the IC50 on ITK was over 1000 nM; in test [1] (Homo sapiens), over 5000 nM.

`C=CC(=O)Nc1cccc(-c2cnc3[nH]cc(-c4ccnc(OC)c4)c3c2)c1` [Example 6, N-(3-(3-(2-Methoxypyridin-4-yl)-1H-pyrrolo[2,3-b]pyridin-5-yl)phenyl)acrylamide]: the concentration for half-maximal inhibition (IC50) at ITK is at most 1000 nM; in test [1] (Homo sapiens) it was under 1000 nM.

As to `N#C/C(=C\c1cccc(-c2cnc3[nH]cc(-c4ccncc4)c3c2)c1)C(N)=O` [Example 8, (E)-2-Cyano-3-(3-(3-(pyridin-4-yl)-1H-pyrrolo[2,3-b]pyridin-5-yl)phenyl)acrylamide], the IC50 on ITK was at most 1000 nM; in test [1] (Homo sapiens) it was 1000 to 5000 nM.

As for `C=CC(=O)N(C)c1cccc(-c2cnc3[nH]cc(-c4ccnc(OC)c4)c3c2)c1` [Example 21, N-(3-(3-(2-methoxypyridin-4-yl)-1H-pyrrolo[2,3-b]pyridin-5-yl)phenyl)-N-methylacrylamide], the IC50 at ITK is at most 1000 nM; in test [1] (Homo sapiens), 1000 to 5000 nM.

With `C=CC(=O)Nc1cccc(-c2cnc3[nH]cc(-c4cc(OC)ncn4)c3c2)c1` [Example 39, N-(3-(3-(6-methoxypyrimi-din-4-yl)-1H-pyrrolo[2,3-b]pyridin-5-yl)phenyl)acryl-amide], the results for the IC50 (at ITK; in test [1] (Homo sapiens)) were at most 1000 nM and 1000 to 5000 nM, respectively.

On to `C=CC(=O)Nc1cccc(-c2cnc3[nH]cc(-c4cn(CC5CC5)c(=O)c5ccccc45)c3c2)c1` [Example 86, N-(3-(3-(2-(cyclopropyl-methyl)-1-oxo-1,2-dihydroisoquino-lin-4-yl)-1H-pyrrolo[2,3-b]pyridin-5-yl)phenyl)acryl-amide], for which the IC50 was over 1000 nM at ITK and over 5000 nM in test [1] (Homo sapiens).

As to `C=CC(=O)Nc1cccc(-c2cnc3[nH]cc(-c4ccc(C(=O)Nc5ccc(C(C)C)cc5)cc4)c3c2)c1` [Example 74, 4-(5-(3-acrylamidophen-yl)-1H-pyrrolo[2,3-b]pyridin-3-yl)-N-(4-isopropylphenyl) benzamide], the concentration for half-maximal inhibition (IC50) on ITK was at most 1000 nM; in test [1] (Homo sapiens), under 1000 nM.

Turning to “N-(6-methoxy- 4-(3-(2- methoxypyridin- 4-yl)-1H- pyrrolo[2,3- b]pyridin-5- yl)pyridin-2- yl)methacryl- amide [Example 68]”, the figures for the 50% inhibitory concentration (IC50) (at ITK; in test [1]) were over 1000 nM and over 5000 nM, respectively.

Take `C=CC(=O)NC1CN(c2cnc3[nH]cc(-c4ccnc(NC)c4)c3c2)C1` [Example 36, N-(1-(3-(2-(methylamino)pyridin-4-yl)-1H-pyrrolo[2,3-b]pyridin-5-yl)azetidin-3-yl)acrylamide]: the concentration for half-maximal inhibition (IC50) on ITK is at most 1000 nM; in test [1] (Homo sapiens), over 5000 nM.

Take `COc1cc(-c2c[nH]c3ncc(-c4cccc(NC(=O)/C=C/CN(C)C)c4)cc23)ccn1` [Example 37, (E)-4-(dimethylamino)-N-(3-(3-(2-methoxypyridin-4-yl)-1H-pyrrolo[2,3-b]pyridin-5-yl)phenyl)but-2-enamide]: the values for the IC50 (on ITK; in test [1] (Homo sapiens)) were at most 1000 nM and 1000 to 5000 nM, respectively.

On to `CN(C)C/C=C/C(=O)Nc1cccc(-c2cnc3[nH]cc(-c4cccc(C#N)c4)c3c2)c1` [Example 78, (E)-N-(3-(3-(3-cyanophenyl)-1H-pyrrolo[2,3-b]pyridin-5-yl)phenyl)-4-(dimethylamino) but-2-enamide], for which the IC50 was at most 1000 nM at ITK and over 5000 nM in test [1] (Homo sapiens).

With `CN(C)C/C=C/C(=O)Nc1cccc(-c2cnc3[nH]cc(-c4ccc(=O)n(CC5CC5)c4)c3c2)c1` [Example 90, (E)-N-(3-(3-(1-(cyclopropyl-methyl)-6-oxo-1,6-dihydropyridin-3-yl)-1H-pyrrolo[2,3-b]pyridin-5-yl)phenyl)-4-(dimethylamino) but-2-enamide], the IC50 at ITK is at most 1000 nM; in test [1] (Homo sapiens), over 5000 nM.

Take `C=CC(=O)Nc1cncc(-c2cnc3[nH]cc(-c4ccc(=O)n(C)c4)c3c2)c1` [Example 17, N-(5-(3-(1-methyl-6-oxo-1,6-dihydropyridin-3-yl)-1H-pyrrolo[2,3-b]pyridin-5-yl)pyridin-3-yl)acrylamide]: the values for the IC50 (on ITK; in test [1] (Homo sapiens)) were at most 1000 nM and over 5000 nM, respectively.

Consider `C=C(C)C(=O)Nc1cccc(-c2cnc3[nH]cc(-c4cccnc4)c3c2)c1` [Example 85, N-(3-(3-(pyridin-3-yl)-1H-pyrrolo[2,3-b]pyridin-5-yl)phenyl)meth-acrylamide], for which the half-maximal inhibitory concentration (IC50) was at most 1000 nM on ITK and over 5000 nM in test [1] (Homo sapiens).

In the case of `C=CC(=O)Nc1cccc(-c2cnc3[nH]cc(-c4cn(C)c(=O)c5ccccc45)c3c2)c1` [Example 72, N-(3-(3-(2-methyl-1-oxo-1,2-dihydroisoquino-lin-4-yl)-1H-pyrrolo[2,3-b]pyridin-5-yl)phenyl)acryl-amide], the values for the half-maximal inhibitory concentration (IC50) (at ITK; in test [1] (Homo sapiens)) were at most 1000 nM and under 1000 nM, respectively.

With `C=CC(=O)NC1CN(c2cnc3[nH]cc(-c4ccnc(C)c4)c3c2)C1` [Example 4, N-(1-(3-(2-Methylpyridin-4-yl)-1H-pyrrolo[2,3-b]pyridin-5-yl)azetidin-3-yl)acrylamide], the IC50 at ITK was at most 1000 nM; in test [1] (Homo sapiens), over 5000 nM.

Turning to `C=CC(=O)NC1CN(c2cnc3[nH]cc(-c4ccnc(F)c4)c3c2)C1` [Example 35, N-(1-(3-(2-fluoropyridin-4-yl)-1H-pyrrolo[2,3-b]pyridin-5-yl)azetidin-3-yl)acrylamide], the IC50 is at most 1000 nM on ITK and over 5000 nM in test [1] (Homo sapiens).
